From patent publication US20180064110A1, “COMBINATIONS OF FUNGICIDALLY ACTIVE YEAST AND FUNGICIDES” (Bayer CropScience AG, priority 2009, published 2018)

Test system: green peach aphid (Myzus persicae)
Test: Myzus test (spray treatment) on Chinese cabbage leaf disks
Format: in vivo
Conditions: foliar, 144 h, read-out: Mortality in % After 6 Days
Method: A suitable preparation of active ingredient was prepared by mixing one part by weight of active ingredient with the stated amounts of solvent and emulsifier and diluting the concentrate with emulsifier-containing water to the desired concentration as described below. A suitable suspension of biological agent was prepared by dissolving the cells, spores or viruses in emulsifier-containing water at the desired concentration.
Chinese cabbage (Brassica pekinensis) leaf disks infested by all stages of the green peach aphid (Myzus persicae) were sprayed with an active ingredient and/or biological agent preparation in the desired concentration.
After the desired time, the effect in % was ascertained. Here, 100% means that all of the aphids had been killed; 0% means that no aphids had been killed. The mortality figures determined are used for calculation according to the Colby formula (cf. Colby, S. R., “Calculating Synergistic and Antagonistic Responses of Herbicide Combinations”, Weeds 1967, 15, 20-22).

Question: Which mortality at 500 g/ha (500 g ai/ha) does the source give for `O=C(NCCc1ncc(C(F)(F)F)cc1Cl)c1ccccc1C(F)(F)F` [Fluopyram, fluopyram] here?
Answer: 0%

Question: And the mortality at 1000 g/ha (1000 g ai/ha)?
Answer: 0%
